Results taken from patent US20220249523A1, “BENZOAZEPINE COMPOUND-CONTAINING FREEZE-DRIED COMPOSITION” (OTSUKA PHARMACEUTICAL CO., LTD., priority 2019, published 2022).
Each block holds one molecule with its values, some of them ahead of it.

Experiments:
Format in all cases: physicochemical
[1] = pH at reconstitution with water of stored freeze-dried compositions; settings: initial pH 8.5
Procedure: In addition to the aqueous solution containing sodium phosphate at a concentration of 20 mM and having a pH of 8.5, aqueous solutions containing sodium phosphate at a concentration of 10 mM or 50 mM were also prepared as in the same manner as the “Analysis 1: Stability of Freeze-Dried Formulation of Compound A” section above. Further, freeze-dried compositions were prepared to analyze the stability of compound A in the freeze-dried compositions (after storage at 60° C. for 1 month, or at 40° C. for 3 months). Thereafter, the pH at the time of reconstitution with water was analyzed.

[2] = Appearance on reconstitution of freeze-dried compositions with water (foaming, cloudiness); settings: freeze-dried compositions with a sucrose concentration of 4% or 7.5%, pH 8.0
[3] = Solubility in water of compound (1) and its metal salts
Procedure: (§1) The stability of these metal salts in a solid state was analyzed. […] Additionally, the solubility in water was analyzed.

[4] = Stability of metal salts of compound (1) in a solid state; settings: compared to compound (1)
Procedure: as §1

[5] = Storage stability of freeze-dried compositions: amount of tolvaptan produced (HPLC area normalization); settings: for Amount of tolvaptan produced (%): freeze-dried; for Amount of tolvaptan produced (%) / Amount of tolvaptan produced: 60° C. for 1 month; for Amount of tolvaptan produced: freeze-dried composition, compound (1) 0.1 w/v %
Procedure: Aqueous solutions containing compound (1) (0.1 w/v %), mannitol (4 w/v %), and sodium hydroxide (q.s.) were prepared (pH 7, 7.5, 8, 8.5, or 9) using a 20 mM disodium hydrogen phosphate buffer.
The aqueous solutions were each placed in a 2-mL glass vial, and frozen to a temperature of −40° C. or lower. Thereafter, the vials were depressurized to vacuum, and water was removed during freeze-drying to thus obtain freeze-dried compositions. The resulting products were stored at 40° C. for 3 months, or at 60° C. for 1 month; and then reconstituted with the same amount of water as that removed by freeze-drying, to return the products back to aqueous solutions. The amount of total degradation products or tolvaptan produced (%) in each of the obtained aqueous solutions was determined by the HPLC area normalization method.
Freeze-dried compositions were prepared in the same manner as in the “Analysis 1: Stability of Freeze-Dried Formulation of Compound (1)” section above using additives other than mannitol, i.e., NaCl, sorbitol, sucrose, maltose, trehalose, or lactose. Here, the pH of the aqueous solutions before preparing freeze-dried compositions was adjusted to 8.5. However, for lactose, the pH of the aqueous solution before preparing a freeze-dried composition was adjusted to 9.0 with a 24 mM sodium hydrogen carbonate buffer.
After the obtained freeze-dried compositions were stored at 60° C. for 1 month, the amount of tolvaptan produced was determined by the HPLC area normalization method, and the stability of compound (1) in each composition was analyzed. […] The reduction was particularly remarkable with sucrose, maltose, and lactose. Additionally, after storage at 60° C. for 1 week of the aqueous solutions before preparing freeze-dried compositions, the stability of compound (1) in each composition was analyzed. […] The results confirmed that the use of maltose or lactose increased the amount of tolvaptan produced (%).
Aqueous solutions with a pH of 7.5, 8, 8.5, or 9 were prepared in the same manner as in the “Analysis 2: Stability of Freeze-Dried Formulation of Compound (1)” section above, except that compound A at a concentration of 0.541 w/v % and sucrose at a concentration of 7.5 w/v % were used. The resulting aqueous solutions were freeze-dried to obtain freeze-dried compositions. The freeze-dried compositions were stored at 60° C. for 1 month. Thereafter, the amount of tolvaptan produced (%) was determined by the HPLC area normalization method.
An aqueous solution with a pH of 8.5 was prepared in the same manner as in the “Analysis 1: Stability of Freeze-Dried Formulation of Compound A” section above, using potassium phosphate instead of sodium phosphate as a buffering agent. Further, a freeze-dried composition was prepared to analyze the stability of compound A in the freeze-dried composition (after storage at 60° C. for 1 month). The amount of tolvaptan produced (%) was 0.07%, which was the same as when sodium phosphate was used.
Aqueous solutions with a pH of 8.0 were prepared in the same manner as in the “Analysis 1: Stability of Freeze-Dried Formulation of Compound A” section above, such that the sucrose concentration was 1%, 2%, 4%, or 7.5%. Further, the freeze-dried compositions were prepared to analyze the stability of compound A in the freeze-dried compositions (after storage at 60° C. for 1 month). The amount of tolvaptan produced (%) was 0.25% when the sucrose concentration was 1%, 0.12% when the sucrose concentration was 2%, 0.08% when the sucrose concentration was 4%, and 0.10% when the sucrose concentration was 7.5%.
In addition to the aqueous solution containing sodium phosphate at a concentration of 20 mM and having a pH of 8.5, aqueous solutions containing sodium phosphate at a concentration of 10 mM or 50 mM were also prepared as in the same manner as the “Analysis 1: Stability of Freeze-Dried Formulation of Compound A” section above. […]

[6] = Stability of phosphate ester bond in aqueous solution on high-pressure steam sterilization (HPLC area normalization); settings: 0.1 w/v % aqueous solution, 121° C., 20 minutes
Procedure: Aqueous solutions containing compound (1) at a concentration of 0.1 w/v % were prepared, and the stability of the aqueous solutions when subjected to high-pressure steam sterilization (121° C., 20 minutes) was analyzed. The aqueous solutions were prepared using a 100 mM sodium phosphate buffer or a 100 mM Tris buffer. The pH of the aqueous solutions prepared using each of the buffers was adjusted with sodium hydroxide to prepare solutions with different pHs. After the treatment, the purity of compound (1) and the amount of tolvaptan produced were determined by the HPLC area normalization method.

- pH at 40° C. 3 months later ([1]; sodium phosphate 10 mM): 8.16
- pH at 60° C. 1 month later ([1]; sodium phosphate 10 mM): 8.24
- pH at 40° C. 3 months later ([1]; sodium phosphate 20 mM): 8.24
- pH at 60° C. 1 month later ([1]; sodium phosphate 20 mM): 8.34
- pH at 40° C. 3 months later ([1]; sodium phosphate 50 mM): 8.30
- pH at 60° C. 1 month later ([1]; sodium phosphate 50 mM): 8.36
- Solubility in water [3]: ≥ 4 w/v %
- Stability in a solid state [4]: remarkably improved stability
- Amount of tolvaptan produced (%) ([5]; compound A 0.541 w/v %, sucrose 7.5 w/v %, 20 mM sodium phosphate, pH 7.5): 0.22%
- Amount of tolvaptan produced (%) ([5]; compound A 0.541 w/v %, sucrose 7.5 w/v %, 20 mM sodium phosphate, pH 8): 0.10%
- Amount of tolvaptan produced (%) ([5]; compound A 0.541 w/v %, sucrose 7.5 w/v %, 20 mM sodium phosphate, pH 8.5): 0.07%
- Amount of tolvaptan produced (%) ([5]; compound A 0.541 w/v %, sucrose 7.5 w/v %, 20 mM sodium phosphate, pH 9): below the detection limit
- Amount of tolvaptan produced (%) ([5]; compound A, pH 8.0, sucrose concentration 1%): 0.25%
- Amount of tolvaptan produced (%) ([5]; compound A, pH 8.0, sucrose concentration 2%): 0.12%
- Amount of tolvaptan produced (%) ([5]; compound A, pH 8.0, sucrose concentration 4%): 0.08%
- Amount of tolvaptan produced (%) ([5]; compound A, sucrose 7.5 w/v %, pH 8.5, sodium phosphate 10 mM): 0.07%
- Amount of tolvaptan produced (%) ([5]; compound A, sucrose 7.5 w/v %, pH 8.5, sodium phosphate 50 mM): below the detection limit
- Amount of tolvaptan produced (%) ([5]; compound A, sucrose 7.5 w/v %, potassium phosphate instead of sodium phosphate, pH 8.5): 0.07%
SMILES: Cc1ccccc1C(=O)Nc1ccc(C(=O)N2CCCC(OP(=O)([O-])[O-])c3cc(Cl)ccc32)c(C)c1.[Na+].[Na+] (stereo not drawn) [compound A]
- Appearance when reconstituted with water [2]: foaming and slight cloudiness were observed

SMILES: [O-][n+]1ccccc1[S-].[O-][n+]1ccccc1[S-].[Zn+2] [Zinc salt]
- Solubility in water [3]: 0.003 w/v %
- Stability in a solid state [4]: remarkably improved stability

- Stability of phosphate ester bond on high-pressure steam sterilization ([6]; sodium phosphate buffer having a pH of 7.5 or more): highly stable
- Stability of phosphate ester bond on high-pressure steam sterilization ([6]; tolvaptan formed as a precipitate): hydrolyzed
- Solubility in water [3]: 0.14 w/v %
- Amount of tolvaptan produced ([5]; mannitol 4 w/v %, solution pH 8.5): 1.45%
- Amount of tolvaptan produced ([5]; mannitol 4 w/v %, solution pH 9): 0.9%
- Stability in freeze-dried compositions ([5]; mannitol 4 w/v %, solutions with a pH exceeding 8, storage at 60° C.): relatively stable
SMILES: Cc1ccccc1C(=O)Nc1ccc(C(=O)N2CCCC(OP(=O)(O)O)c3cc(Cl)ccc32)c(C)c1 (stereo not drawn) [compound (1)]
